Results as given in ChEMBL document CHEMBL1127275, “Peptide based P21RAS farnesyl transferase inhibitors: systematic modification of the tetrapeptide CA1A2X motif” (Bioorg Med Chem Lett, 1994).

What follows are molecules tested against Protein farnesyltransferase (Rattus norvegicus, UniProt Q02293+Q04631) (assay: In vitro inhibitory concentration evaluated against P21ras Farnesyl transferase).
Type: protein-complex assay

Compound | IC50
CN[C@@H](CS)C(=O)N[C@H](C(=O)N[C@@H](Cc1ccccc1)C(=O)N[C@@H](CCSC)C(=O)O)C(C)C | 0.42 µM
CSCC[C@H](NC(=O)[C@H](Cc1ccccc1)NC(=O)C1(NC(=O)[C@@H](N)CS)CCCCC1)C(=O)O | 1.2 µM
CSCC[C@H](NC(=O)[C@H](Cc1ccccc1)NC(=O)[C@@H](NC(=O)[C@@H](N)CC(=O)O)C(C)C)C(=O)O | 250 µM
CSCC[C@H](NC(=O)[C@@H](NC(=O)[C@@H](NC(=O)[C@@H](N)CS)C(C)C)c1ccccc1)C(=O)O | 0.696 µM
CSCC[C@H](NC(=O)[C@H](Cc1ccccc1)NC(=O)[C@@H](NC(=O)[C@@H](N)Cc1cnc[nH]1)C(C)C)C(=O)O | 6.8 µM
CSCC[C@H](NC(=O)[C@H](Cc1ccccc1)NC(=O)[C@@H](NC(=O)C[C@H](N)CS)C(C)C)C(=O)O | 1.8 µM
CC(C)[C@H](NC(=O)[C@@H](N)CS)C(=O)N[C@@H](Cc1ccccc1)C(=O)N[C@@H](Cc1ccccc1)C(=O)O | 0.4 µM
CSCC[C@H](NC(=O)[C@H](Cc1ccccc1)NC(=O)[C@@H](NC(=O)[C@@H](N)CCC(=O)O)C(C)C)C(=O)O | 120 µM
CSCC[C@H](NC(=O)[C@H](Cc1ccccc1)NC(=O)C(C)(C)NC(=O)[C@@H](N)CS)C(=O)O | 0.4 µM
CSCC[C@@H](C(=O)O)N(C)C(=O)[C@H](Cc1ccccc1)NC(=O)[C@@H](NC(=O)[C@@H](N)CS)C(C)C | 1.4 µM
CCCC[C@H](NC(=O)[C@H](Cc1ccccc1)NC(=O)[C@@H](NC(=O)[C@@H](N)CS)C(C)C)C(=O)O | 0.95 µM
CSCC[C@H](NC(=O)[C@H](Cc1ccccc1)NC(=O)[C@@H](NC(=O)[C@@H](N)CCS)C(C)C)C(=O)O (stereo in doubt; form 1) | 0.51 µM
CSCC[C@H](NC(=O)[C@H](Cc1ccccc1)NC(=O)[C@@H](NC(=O)[C@@H](N)CCS)C(C)C)C(=O)O (stereo in doubt; form 2) | 2.7 µM

Now those with a lower IC50, led by results:

IC50 | Compound
0.25 µM | CSCC[C@H](NC(=O)[C@H](Cc1ccccc1)NC(=O)[C@H](C(C)C)N(C)C(=O)[C@@H](N)CS)C(=O)O
0.126 µM | CSCC[C@H](NC(=O)[C@H](Cc1ccccc1)NC[C@@H](NC(=O)[C@@H](N)CS)C(C)C)C(=O)O
0.36 µM | CSCC[C@H](NC(=O)[C@H](Cc1ccccc1)N(C)C(=O)[C@@H](NC(=O)[C@@H](N)CS)C(C)C)C(=O)O
0.12 µM | CSCC[C@H](NC(=O)[C@H](CCc1ccccc1)NC(=O)[C@@H](NC(=O)[C@@H](N)CS)C(C)C)C(=O)O
0.017 µM | CSCC[C@H](NC(=S)[C@H](Cc1ccccc1)NC(=O)[C@@H](NC(=O)[C@@H](N)CS)C(C)C)C(=O)O
0.014 µM | CSCC[C@H](NC(=O)[C@H](Cc1c[nH]c2ccccc12)NC(=O)[C@@H](NC(=O)[C@@H](N)CS)C(C)C)C(=O)O
0.012 µM | CSCC[C@H](NC(=O)[C@H](Cc1ccccc1)NC(=O)[C@@H](NC[C@@H](N)CS)C(C)C)C(=O)O
0.029 µM | CSCC[C@H](NC(=O)[C@@H](NC(=O)[C@@H](NC[C@@H](N)CS)C(C)C)C(C)C)C(=O)O
0.012 µM | CSCC[C@H](NC(=O)[C@H](Cc1ccc2ccccc2c1)NC(=O)[C@@H](NC(=O)[C@@H](N)CS)C(C)C)C(=O)O
0.068 µM | CSCC[C@H](NC(=O)[C@@H](NC(=O)[C@@H](NC(=O)[C@@H](N)CS)C(C)C)C(C)C)C(=O)O
0.241 µM | CSCC[C@H](NC(=O)[C@H](Cc1ccccc1)NC(=O)[C@H](C)NC(=O)[C@@H](N)CS)C(=O)O
